Assay results from patent US12077503B2, “Substituted cyclic amides and their use as herbicides” (FMC CORPORATION, priority 2015, dated 2024).

How the values were obtained:
Assay type in all cases: in vivo
[1] = system: barnyardgrass (Echinochloa crus-galli); assay: Test G Post-Emergence Protocol; conditions: Echinochloa crus-galli, post-emergence, 312 h, read-out: Barnyardgrass damage rating; for pest or weed control at 15.625 g/ha: 15.625 g ai/ha, evaluated after 13 days (100=total damage to plant; 0=no damage to plant); for pest or weed control at 62.5 g/ha: 62.5 g ai/ha; for pest or weed control at 62.5 g/ha / pest or weed control at 250 g/ha: evaluated after 13 days, 100=total damage to plant, 0=no damage to plant; for pest or weed control at 250 g/ha: 250 g ai/ha
In short: (§1)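 Values are percent visual injury at 13 days after treatment (0 none, 100 total). Treatment was a post-emergence spray at 15.625, 62.5 or 250 g/ha on 8-day-old pot plants kept at 24/16 °C.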

[2] = system: ivy-leaved morning glory (Ipomoea hederacea); assay: Test G Post-Emergence Protocol; conditions: Ipomoea, post-emergence, 312 h, read-out: Morningglory, Ivy-leaved damage rating; for pest or weed control at 15.625 g/ha: 15.625 g ai/ha, evaluated after 13 days (100=total damage to plant; 0=no damage to plant); for pest or weed control at 62.5 g/ha: 62.5 g ai/ha; for pest or weed control at 62.5 g/ha / pest or weed control at 250 g/ha: evaluated after 13 days, 100=total damage to plant, 0=no damage to plant; for pest or weed control at 250 g/ha: 250 g ai/ha
In short: as §1

corn (Zea mays) [3] = assay: Test G Post-Emergence Protocol; conditions: Zea mays, post-emergence, 312 h, read-out: Corn damage rating; for plant injury at 15.625 g/ha: 15.625 g ai/ha, evaluated after 13 days (100=total damage to plant; 0=no damage to plant); for plant injury at 62.5 g/ha: 62.5 g ai/ha; for plant injury at 62.5 g/ha / plant injury at 250 g/ha: evaluated after 13 days, 100=total damage to plant, 0=no damage to plant; for plant injury at 250 g/ha: 250 g ai/ha
In short: as §1

[4] = system: velvetleaf (Abutilon theophrasti); assay: Test G Post-Emergence Protocol; conditions: Abutilon theophrasti, post-emergence, 312 h, read-out: Velvetleaf damage rating; for pest or weed control at 15.625 g/ha: 15.625 g ai/ha, evaluated after 13 days (100=total damage to plant; 0=no damage to plant); for pest or weed control at 62.5 g/ha: 62.5 g ai/ha; for pest or weed control at 62.5 g/ha / pest or weed control at 250 g/ha: evaluated after 13 days, 100=total damage to plant, 0=no damage to plant; for pest or weed control at 250 g/ha: 250 g ai/ha
In short: as §1

[5] = system: giant foxtail (Setaria faberi); assay: Test G Post-Emergence Protocol; conditions: Setaria faberi, post-emergence, 312 h, read-out: Foxtail, Giant damage rating; for pest or weed control at 15.625 g/ha: 15.625 g ai/ha, evaluated after 13 days (100=total damage to plant; 0=no damage to plant); for pest or weed control at 62.5 g/ha: 62.5 g ai/ha; for pest or weed control at 62.5 g/ha / pest or weed control at 250 g/ha: evaluated after 13 days, 100=total damage to plant, 0=no damage to plant; for pest or weed control at 250 g/ha: 250 g ai/ha
In short: as §1

[6] = system: redroot pigweed (Amaranthus retroflexus); assay: Test G Post-Emergence Protocol; conditions: Amaranthus retroflexus, post-emergence, 312 h, read-out: Pigweed, Redroot damage rating; for pest or weed control at 15.625 g/ha: 15.625 g ai/ha, evaluated after 13 days (100=total damage to plant; 0=no damage to plant); for pest or weed control at 62.5 g/ha: 62.5 g ai/ha; for pest or weed control at 62.5 g/ha / pest or weed control at 250 g/ha: evaluated after 13 days, 100=total damage to plant, 0=no damage to plant; for pest or weed control at 250 g/ha: 250 g ai/ha
In short: as §1

[7] = system: barnyardgrass (Echinochloa crus-galli); assay: Test G Pre-Emergence Protocol; conditions: Echinochloa crus-galli, pre-emergence, 312 h, evaluated after 13 days; for pest or weed control at 15.625 g/ha: 15.625 g ai/ha; for pest or weed control at 15.625 g/ha / pest or weed control at 250 g/ha: read-out: Barnyardgrass damage rating (100=total damage to plant; 0=no damage to plant); for pest or weed control at 62.5 g/ha: 62.5 g ai/ha, 100=total damage to plant, 0=no damage to plant, read-out: Barnyardgrass damage rating; for pest or weed control at 250 g/ha: 250 g ai/ha
In short: (§2)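 Under a 24/16° C day/night regime with 14 h light and 65% humidity, sown pots were sprayed after one day with compound (15.625, 62.5 or 250 g/ha; 50:50 acetone/water, 0.5% Tween 20). Damage was assessed visually 13 days later, 0 to 100.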

[8] = system: ivy-leaved morning glory (Ipomoea hederacea); assay: Test G Pre-Emergence Protocol; conditions: Ipomoea, pre-emergence, 312 h, evaluated after 13 days; for pest or weed control at 15.625 g/ha: 15.625 g ai/ha; for pest or weed control at 15.625 g/ha / pest or weed control at 250 g/ha: read-out: Morningglory, Ivy-leaved damage rating (100=total damage to plant; 0=no damage to plant); for pest or weed control at 62.5 g/ha: 62.5 g ai/ha, 100=total damage to plant, 0=no damage to plant, read-out: Morningglory, Ivy-leaved damage rating; for pest or weed control at 250 g/ha: 250 g ai/ha
In short: as §2

corn (Zea mays) [9] = assay: Test G Pre-Emergence Protocol; conditions: Zea mays, pre-emergence, 312 h, evaluated after 13 days; for plant injury at 15.625 g/ha: 15.625 g ai/ha; for plant injury at 15.625 g/ha / plant injury at 250 g/ha: read-out: Corn damage rating (100=total damage to plant; 0=no damage to plant); for plant injury at 62.5 g/ha: 62.5 g ai/ha, 100=total damage to plant, 0=no damage to plant, read-out: Corn damage rating; for plant injury at 250 g/ha: 250 g ai/ha
In short: as §2

[10] = system: velvetleaf (Abutilon theophrasti); assay: Test G Pre-Emergence Protocol; conditions: Abutilon theophrasti, pre-emergence, 312 h, evaluated after 13 days; for pest or weed control at 15.625 g/ha: 15.625 g ai/ha; for pest or weed control at 15.625 g/ha / pest or weed control at 250 g/ha: read-out: Velvetleaf damage rating (100=total damage to plant; 0=no damage to plant); for pest or weed control at 62.5 g/ha: 62.5 g ai/ha, 100=total damage to plant, 0=no damage to plant, read-out: Velvetleaf damage rating; for pest or weed control at 250 g/ha: 250 g ai/ha
In short: as §2

[11] = system: giant foxtail (Setaria faberi); assay: Test G Pre-Emergence Protocol; conditions: Setaria faberi, pre-emergence, 312 h, evaluated after 13 days; for pest or weed control at 15.625 g/ha: 15.625 g ai/ha; for pest or weed control at 15.625 g/ha / pest or weed control at 250 g/ha: read-out: Foxtail, Giant damage rating (100=total damage to plant; 0=no damage to plant); for pest or weed control at 62.5 g/ha: 62.5 g ai/ha, 100=total damage to plant, 0=no damage to plant, read-out: Foxtail, Giant damage rating; for pest or weed control at 250 g/ha: 250 g ai/ha
In short: as §2

[12] = system: redroot pigweed (Amaranthus retroflexus); assay: Test G Pre-Emergence Protocol; conditions: Amaranthus retroflexus, pre-emergence, 312 h, evaluated after 13 days; for pest or weed control at 15.625 g/ha: 15.625 g ai/ha; for pest or weed control at 15.625 g/ha / pest or weed control at 250 g/ha: read-out: Pigweed, Redroot damage rating (100=total damage to plant; 0=no damage to plant); for pest or weed control at 62.5 g/ha: 62.5 g ai/ha, 100=total damage to plant, 0=no damage to plant, read-out: Pigweed, Redroot damage rating; for pest or weed control at 250 g/ha: 250 g ai/ha
In short: as §2

CN1CCC(NC(=O)[C@H]2C(=O)N(C)C[C@@H]2c2ccc(C(F)(F)F)cc2)C1=O (mixture of isomers) [Compound 1673]
pest or weed control at 15.625 g/ha [1]: 0%
pest or weed control at 62.5 g/ha [1]: 0%
pest or weed control at 250 g/ha [1]: 0%
pest or weed control at 15.625 g/ha [2]: 0%
pest or weed control at 62.5 g/ha [2]: 0%
pest or weed control at 250 g/ha [2]: 0%
plant injury at 15.625 g/ha (corn (Zea mays) [3]): 0%
plant injury at 62.5 g/ha (corn (Zea mays) [3]): 0%
plant injury at 250 g/ha (corn (Zea mays) [3]): 0%
pest or weed control at 15.625 g/ha [4]: 0%
pest or weed control at 62.5 g/ha [4]: 0%
pest or weed control at 250 g/ha [4]: 0%
pest or weed control at 15.625 g/ha [5]: 0%
pest or weed control at 62.5 g/ha [5]: 0%
pest or weed control at 250 g/ha [5]: 10%
pest or weed control at 15.625 g/ha [6]: 0%
pest or weed control at 62.5 g/ha [6]: 0%
pest or weed control at 250 g/ha [6]: 0%
pest or weed control at 15.625 g/ha [7]: 0%
pest or weed control at 62.5 g/ha [7]: 0%
pest or weed control at 250 g/ha [7]: 0%
pest or weed control at 15.625 g/ha [8]: 0%
pest or weed control at 62.5 g/ha [8]: 0%
pest or weed control at 250 g/ha [8]: 0%
plant injury at 15.625 g/ha (corn (Zea mays) [9]): 0%
plant injury at 62.5 g/ha (corn (Zea mays) [9]): 0%
plant injury at 250 g/ha (corn (Zea mays) [9]): 0%
pest or weed control at 15.625 g/ha [10]: 0%
pest or weed control at 62.5 g/ha [10]: 0%
pest or weed control at 250 g/ha [10]: 0%
pest or weed control at 15.625 g/ha [11]: 0%
pest or weed control at 62.5 g/ha [11]: 0%
pest or weed control at 250 g/ha [11]: 0%
pest or weed control at 15.625 g/ha [12]: 0%
pest or weed control at 62.5 g/ha [12]: 0%
pest or weed control at 250 g/ha [12]: 0%

CN1C[C@H](c2ccc(C(F)(F)F)cc2)[C@@H](C(=O)Nc2cnccc2[S+](C)[O-])C1=O (mixture of isomers) [Compound 1751]
pest or weed control at 15.625 g/ha [1]: 0%
pest or weed control at 62.5 g/ha [1]: 0%
pest or weed control at 250 g/ha [1]: 0%
pest or weed control at 15.625 g/ha [2]: 0%
pest or weed control at 62.5 g/ha [2]: 0%
pest or weed control at 250 g/ha [2]: 0%
plant injury at 15.625 g/ha (corn (Zea mays) [3]): 0%
plant injury at 62.5 g/ha (corn (Zea mays) [3]): 0%
plant injury at 250 g/ha (corn (Zea mays) [3]): 0%
pest or weed control at 15.625 g/ha [4]: 0%
pest or weed control at 62.5 g/ha [4]: 0%
pest or weed control at 250 g/ha [4]: 10%
pest or weed control at 15.625 g/ha [5]: 0%
pest or weed control at 62.5 g/ha [5]: 0%
pest or weed control at 250 g/ha [5]: 10%
pest or weed control at 15.625 g/ha [6]: 0%
pest or weed control at 62.5 g/ha [6]: 0%
pest or weed control at 250 g/ha [6]: 10%
pest or weed control at 15.625 g/ha [7]: 0%
pest or weed control at 62.5 g/ha [7]: 0%
pest or weed control at 250 g/ha [7]: 0%
pest or weed control at 15.625 g/ha [8]: 0%
pest or weed control at 62.5 g/ha [8]: 0%
pest or weed control at 250 g/ha [8]: 0%
plant injury at 15.625 g/ha (corn (Zea mays) [9]): 0%
plant injury at 62.5 g/ha (corn (Zea mays) [9]): 0%
plant injury at 250 g/ha (corn (Zea mays) [9]): 0%
pest or weed control at 15.625 g/ha [10]: 0%
pest or weed control at 62.5 g/ha [10]: 0%
pest or weed control at 250 g/ha [10]: 0%
pest or weed control at 15.625 g/ha [11]: 0%
pest or weed control at 62.5 g/ha [11]: 0%
pest or weed control at 250 g/ha [11]: 10%
pest or weed control at 15.625 g/ha [12]: 0%
pest or weed control at 62.5 g/ha [12]: 0%
pest or weed control at 250 g/ha [12]: 10%
